Data reported in ChEMBL document CHEMBL1201862, “PubChem BioAssay data set” (2004).
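Protocol summary: plate cells (96-well), add compound at 5 concentrations, incubate 48 h, interpolate endpoints linearly. GI50: concentration for 50% inhibition of growth.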 Activity calls are given as the source filed them. Cut-off read from the data, not from the text of the source: active = GI50 up to about 1.1 µM and inactive = higher.

Key:
Assay in all cases: NCI anticancer screen, dose series, 48 h
[1] = tested on: ACHN
[2] = tested on: CAKI-1
[3] = tested on: CCRF-CEM
[4] = tested on: HL-60
[5] = tested on: HOP-62
[6] = tested on: K562
[7] = tested on: OVCAR-8
[8] = tested on: RPMI-8226
[9] = tested on: SF-295
[10] = tested on: SK-OV-3
[11] = tested on: SR
[12] = tested on: TK-10
[13] = tested on: UACC-62
[14] = tested on: HCC 2998
[15] = tested on: NCI-H460
[16] = tested on: SNB-19

Measured: GI50

O=C1C(Br)=CC2(C=C1Br)CCNC1=C2C(=O)c2ccccc2C1=O
inactive: [1] 14.1 µM | [2] 21.6 µM | [3] 3.57 µM | [4] 3.34 µM | [5] 16 µM | [6] 7.89 µM | [7] 4.21 µM | [8] 4.75 µM | [9] 16.8 µM | [10] 30.4 µM | [11] 2.95 µM | [12] 33.3 µM | [13] 8.59 µM

CSc1ccc2c(cc1=O)[C@@H](NC(=O)c1ccc(F)cc1)CCc1cc(O)c(O)c(O)c1-2
inactive: [1] > 100 µM | [2] > 100 µM | [3] 56 µM | [14] > 100 µM | [4] > 100 µM | [5] > 100 µM | [6] 64.3 µM | [15] > 100 µM | [7] > 100 µM | [8] > 100 µM | [9] > 100 µM | [10] > 100 µM | [16] > 100 µM | [12] > 100 µM | [13] > 100 µM

CCCCCCCCCCCCCCCCP(=O)(OC)OC
inactive: [1] 14.8 µM | [2] 16.6 µM | [3] 22.3 µM | [14] 15.4 µM | [4] 11.6 µM | [5] 12 µM | [6] 22.5 µM | [15] 17.3 µM | [7] 15.8 µM | [8] 13.2 µM | [9] 18 µM | [10] 15.2 µM | [16] 15.2 µM | [11] 19.1 µM | [12] 17.1 µM | [13] 14.6 µM

COc1cccc(C2c3cc4c(cc3OC(O)(CO)C2C(=O)O)OCO4)c1.COc1cccc(C2c3cc4c(cc3OC3(O)COC(=O)C23)OCO4)c1 (stereo not drawn)
inactive: [1] 49.5 µM | [3] 37.6 µM | [14] > 100 µM | [4] 33.7 µM | [5] > 100 µM | [6] 37.7 µM | [15] 21.2 µM | [7] 46 µM | [8] 53 µM | [9] 39.9 µM | [10] 91.8 µM | [11] 38.8 µM | [12] > 100 µM | [13] 33.5 µM

COc1ccccc1NC(=O)C(CC(C(=O)Nc1ccccc1OC)/C(C)=N/NC(=O)c1ccccc1O)/C(C)=N/NC(=O)c1ccccc1O (stereo not drawn)
inactive: [1] 98.6 µM | [2] 67 µM | [3] 33 µM | [14] > 100 µM | [4] 47.5 µM | [5] > 100 µM | [6] > 100 µM | [15] 57.9 µM | [7] 75 µM | [8] 59.8 µM | [9] 59.7 µM | [10] > 100 µM | [16] 61.7 µM | [12] > 100 µM

COC(=O)C(c1ccc(OC)cc1)N1C(=O)[C@@H](NC(=O)c2ccccc2)[C@H]1[C@@H](C)O (stereo partly drawn)
inactive: [1] > 100 µM | [3] > 100 µM | [14] > 100 µM | [4] > 100 µM | [5] > 100 µM | [6] > 100 µM | [15] > 100 µM | [7] > 100 µM | [9] > 100 µM | [10] > 100 µM | [16] > 100 µM | [11] > 100 µM | [12] > 100 µM | [13] > 100 µM

Cc1cc(Br)ccc1NC1=CC(=O)C(=O)c2ccccc21
inactive: [1] 36.4 µM | [2] 28.1 µM | [3] 35.1 µM | [14] 62.1 µM | [4] 13.6 µM | [5] > 100 µM | [6] 51.4 µM | [15] 27.9 µM | [7] 42.2 µM | [8] 36.9 µM | [9] 38.5 µM | [10] 49.3 µM | [16] 24.2 µM | [11] 15.5 µM | [12] 99.8 µM | [13] 20 µM

CC(=O)N1CCc2[nH]c3ccccc3c2CC1
inactive: [1] > 100 µM | [2] > 100 µM | [3] > 100 µM | [14] > 100 µM | [4] > 100 µM | [5] > 100 µM | [6] > 100 µM | [15] > 100 µM | [7] > 100 µM | [8] > 100 µM | [9] > 100 µM | [10] > 100 µM | [12] > 100 µM | [13] 86.1 µM

Nc1ncnc2c1ncn2CCCC(c1ccccc1)P(=O)(O)O (stereo not drawn)
inactive: [1] > 100 µM | [2] 17 µM | [14] > 100 µM | [4] > 100 µM | [15] > 100 µM | [7] > 100 µM | [9] > 100 µM | [10] > 100 µM | [16] > 100 µM | [11] > 100 µM | [12] > 100 µM | [13] > 100 µM

O=c1[nH]c2cc([N+](=O)[O-])ccc2nc1/C(=N/Nc1ccccc1)C(O)c1ccccc1Cl (stereo not drawn)
inactive: [1] 17.5 µM | [3] 33.5 µM | [14] 22.3 µM | [4] > 100 µM | [5] 62.5 µM | [6] 42.5 µM | [15] 49.2 µM | [7] > 100 µM | [8] 52.4 µM | [9] 43.3 µM | [10] > 100 µM | [16] > 100 µM | [12] > 100 µM | [13] 11.2 µM

O=C(O)C#CCO
inactive: [1] > 100 µM | [2] > 100 µM | [3] > 100 µM | [4] > 100 µM | [5] > 100 µM | [6] > 100 µM | [15] > 100 µM | [7] > 100 µM | [8] > 100 µM | [9] > 100 µM | [10] > 100 µM | [16] > 100 µM | [12] > 100 µM | [13] > 100 µM

CCOC(=O)C(=O)Nc1c(F)cc(F)cc1Br
inactive: [1] > 100 µM | [2] > 100 µM | [3] > 100 µM | [14] > 100 µM | [4] > 100 µM | [5] > 100 µM | [6] > 100 µM | [15] > 100 µM | [7] > 100 µM | [8] > 100 µM | [9] > 100 µM | [10] > 100 µM | [16] > 100 µM | [11] > 100 µM | [12] > 100 µM | [13] > 100 µM

Cc1cc(CC(O)c2ccc(Cl)c(Cl)c2)nc(O)n1 (stereo not drawn)
inactive: [1] 31.3 µM | [2] 21.7 µM | [3] 48.8 µM | [4] 31 µM | [5] 25.6 µM | [6] 50.1 µM | [15] 34.8 µM | [7] 46.1 µM | [8] 71.9 µM | [9] 30.3 µM | [10] 35.2 µM | [16] 30.5 µM | [11] 24.7 µM | [12] 86.9 µM | [13] 50.9 µM

[O-]c1c2cc(-[n+]3c(-c4ccccc4)cc(-c4ccccc4)cc3-c3ccccc3)cc1COCCOCCOCCOCCOC2
inactive: [1] > 100 µM | [2] > 100 µM | [3] 43.6 µM | [14] 41.7 µM | [4] 31.8 µM | [5] 37 µM | [6] 34 µM | [7] 31.5 µM | [9] 43.8 µM | [10] 57.8 µM | [16] 73.5 µM | [11] 26.2 µM | [12] 57.5 µM | [13] 19.5 µM

N=C(N)NS(=O)(=O)c1ccc(NC(=O)c2cccc3c(Nc4ccc(S(=O)(=O)N=C(N)N)cc4)c4ccc(Cl)cc4nc23)cc1
inactive: [1] 49.7 µM | [2] 94.6 µM | [3] 55 µM | [14] 79.3 µM | [5] 58.6 µM | [6] 41.3 µM | [15] 76.2 µM | [7] 61.2 µM | [8] 43.9 µM | [9] > 100 µM | [10] 32.1 µM | [16] 48.4 µM | [12] > 100 µM | [13] 33.3 µM

COC(OC)[C@@H](C)[C@H](O)[C@](C)(O)C1OC(C)(C)OC(C(C)C=C(C)C)C1C (stereo partly drawn)
inactive: [1] > 100 µM | [2] > 100 µM | [3] > 100 µM | [4] 29.9 µM | [5] > 100 µM | [6] 77.1 µM | [15] > 100 µM | [7] > 100 µM | [8] 48.6 µM | [9] > 100 µM | [10] > 100 µM | [16] > 100 µM | [11] 73.3 µM | [12] > 100 µM | [13] > 100 µM

Cc1cc(N(CCC#N)CCC#N)ccc1/C=C/C(=O)Nc1cccc(Cl)c1
inactive: [1] 57.3 µM | [2] > 100 µM | [3] 85.7 µM | [14] > 100 µM | [4] 51.3 µM | [5] > 100 µM | [6] 32.3 µM | [15] > 100 µM | [7] > 100 µM | [8] > 100 µM | [9] > 100 µM | [10] > 100 µM | [16] > 100 µM | [12] > 100 µM | [13] 46.9 µM

CC1(C)CC[C@]2(C(=O)O)CCC3(C)C(=CCC4[C@@]5(C)CC[C@H](OC6OCC(O)C(O)C6OC6OC(CO)C(O)C(O)C6O)C(C)(C)C5CC[C@]43C)C2C1 (stereo partly drawn)
inactive: [1] 1.94 µM | [2] 1.66 µM | [14] 1.71 µM | [5] 2.09 µM | [15] 2.1 µM | [7] 1.95 µM | [8] 2.35 µM | [9] 1.79 µM | [10] 2.22 µM | [16] 1.93 µM | [11] 2.29 µM | [12] 2.04 µM | [13] 1.83 µM
